A melting point compilation (Tetko et al.; mined from patent text by program, amines drawn as free bases though some values may be those of a salt)

Structure (SMILES)	melting point [°C]
CCCn1cnc(CO)c1C	88 to 88.5
COC(=O)c1cc(S(C)(=O)=O)c(NS(=O)(=O)c2sc3ccc(Cl)cc3c2C)cc1C	205 to 207
CC(C)CSc1c(-c2ccc(S(C)(=O)=O)cc2)cnn(CC(F)(F)F)c1=O	135 to 138
CC(=O)Oc1c(C)cc(Oc2ccc3nc(CO)n(C)c3n2)c(C)c1C	179 to 180
CCCCCCCC[C@H](N[C@@H](C)C(=O)N1C(=O)N(Cc2ccccc2)C[C@H]1C(=O)O)C(=O)OCC	86 to 88
CC1(C)CCC(C)(C)c2cc(COc3ccccc3-c3ccccc3C(=O)O)ccc21	75 to 76
C=C(C)CC(O)(C(Nc1ccc(F)c2nc(C)ncc12)c1ccc(Cl)cc1OC)C(F)(F)F (configuration not stated)	110
Cc1c(O)cc2c(c1C)N(C=O)CC2	192 to 193
CN(C)C1CCc2[nH]c3cccc(F)c3c2C1 (configuration not stated)	166 to 168
C=Cc1ccc(-c2ccc3cc(C(=O)OCc4ccccc4)ccc3c2)cc1C12CC3CC(CC(C3)C1)C2	158 to 160
COc1ccc(-c2nn(CC=Cc3ccccc3)c(=O)cc2-c2ccccc2)cc1	136 to 137
CC(C)(C)CC(=O)N1C[C@@H](c2c[nH]c3ccccc23)[C@H](c2cn3c4c(cccc24)CCC3)C1	202 to 204
Cc1nnc2ncc(-c3cccc(C(F)(F)F)c3)nn12	265 to 268
N#Cc1ccc(Oc2ncccc2C(=O)O)cc1	198 to 200
CCn1c(=O)c2c(nc(/C=C/c3ccc(OCOC)c(OC)c3)n2C)n(CC)c1=O	179 to 181
COc1ccc2c3c1OC1C(O)C(C)(C)CC4C(C2)N(C)CCC341 (configuration not stated)	> 265
COc1cc(OC)c(-c2cccs2)cc1/C=C/C(=O)c1ccc(S(=O)(=O)Nc2ccc(Cl)cn2)cc1	228 to 229
CS(=O)(=O)c1ccc(-c2cnn(-c3cccc(Cl)c3)c(=O)c2Cl)cc1	203 to 204
O=C(O)c1ccc(-c2cnc(-c3ccc(C(F)(F)F)cc3)o2)cc1	253 to 254
Cc1cc(-n2ccnc2)c2cccc(OCc3c(Cl)ccc(S(=O)(=O)N4CCC[C@H]4C(=O)NCC4CCN(CCCCO)CC4)c3Cl)c2n1	112
COC(=O)c1cc(-c2ccc(OC)c(OC)c2)nc2ccc(Br)cc12	154
CN1CC(=O)Nc2ccc(C(F)(F)F)cc2C1=O	203 to 206
Clc1ccc(CN2CCCCC2)cn1	48
CC(O)(C(=O)NCCC(F)(F)F)C(=O)NC1C(=O)N(CCO)c2ccccc2-c2ccccc21 (configuration not stated)	59 to 62
O=C(/C=C/c1ccc2c(c1)OCCO2)CC(=O)/C=C/c1ccc2c(c1)OCCO2	184 to 187
O=c1cc(N2CCOCC2)cc(-c2ccccc2)o1	161 to 162
CC(C)(C)c1cc(C=Cc2n[nH]c(=O)[nH]2)cc(C(C)(C)C)c1O	280 to 284

Structure (SMILES)	melting point [°C]
C1=C(c2ccccc2)CCN(Cc2nc3ccccc3[nH]2)C1	253 to 255
CCCCOc1nc(N)c2nc(OC)n(CCS(=O)(=O)c3cccc(CC(=O)OC)c3)c2n1	246 to 247
Oc1c(CCl)cc(Cl)cc1CCl	88
O=C1NC(=O)C(C2C3CCCC32)O1 (configuration not stated)	135 to 141
CCCON1C(C)(C)CC(NC(=O)C2=C(c3ccccc3)C(c3ccccc3)OC2=O)CC1(C)C (configuration not stated)	79 to 85
CCCCn1nc(C(N)=O)cc1CC	60 to 61
COc1ccc(-c2nc(O)c(C)s2)cc1	149 to 150
COc1ccc2c(c1)C(C(=O)N(Cc1ccc(-n3ccnc3)cc1)c1ccc(C(C)C)cc1)CCC2 (configuration not stated)	111
COCCNC(=O)c1cccc(-c2nc(=O)c3ccccc3s2)n1	176 to 177
CSc1cc(C(F)(F)F)ccc1C(=O)O	178 to 179
NC(=O)c1ccc(F)nc1N	198 to 200
CC(C)(C)OC(=O)C1CCN(C(=O)OCc2ccccc2)N1 (configuration not stated)	55 to 57
N#Cc1cc(C(=O)NNC(=O)c2occc2-c2ccccc2OCC2CCCCC2)ccc1O	142 to 143
CCC(=NO)c1ccncc1	141 to 144
N#Cc1cnc2cnc(Cl)cc2c1Nc1cccc(Br)c1	220 to 223
COc1ccc(-c2nc(N3CCOCC3)c3sc(NS(=O)(=O)c4cccc(/C=C/C(=O)NO)c4)cc3n2)cn1	> 300
O=P(O)(O)Cc1ccccc1C(F)(F)F	190 to 192
N#CCC#CC1(c2ccc(Cl)cc2)CC1	62 to 64
CSc1c(C(C)C(=O)O)n(Cc2ccc(Cl)cc2)c2ccc(F)cc12 (configuration not stated)	136 to 140
Nc1noc2cc3c(cc12)C1(CO3)C(=O)N(Cc2ccccc2C(F)(F)F)c2ccccc21 (configuration not stated)	262 to 264
CC(=O)Nc1ccc(S(=O)(=O)Nn2cc(-c3ccccc3)c3ccccc32)cc1	190 to 193
CC(C)OC(=O)C(=C1SC=CS1)S(=O)(=O)C(C)C	124 to 125
Cc1ccc(NN2C=c3cc(-c4c(Cl)cccc4Cl)c(=O)n(C)c3=NC2)cc1	243 to 245
CC(C)(C)[Si](C)(C)O[C@@H]1[C@H](O)C[C@]2(O[Si](C)(C)C(C)(C)C)C[C@H]1OC2=O	107 to 108
CC(CCCO)C1CC=C2C3=C(CCC21C)C1(C)CCC(O)C(C)(C)C1CC3 (configuration not stated)	203 to 208
CCn1cc(C(=O)O)c(=O)c2cc(F)c(N3CCNC(c4ccsc4)C3)cc21 (configuration not stated)	198 to 200
O=Cc1ccc(O)c(OCc2ccccc2)c1	123 to 124

Next, values leading:

melting point [°C]	Structure (SMILES)
100 to 103	CCOP(=O)(CCC1(C)NC(=O)NC1=O)OCC (configuration not stated)
165 to 171	CC(=O)n1nc(C(N)=O)c2ccccc21
94 to 95	COc1cc(C)cc(Sc2cccc(F)c2C#N)c1
140 to 142	COc1c(N)ccc2c1C(=CC#N)CC2
100 to 101	CCN(CC)CCCNC(=O)Cn1ncc(-c2ccc(C#N)cc2)c1-c1ccccc1
104 to 107	CC(C)Oc1cc(-n2c(=O)c(F)c(C(F)(F)F)n(C)c2=O)c(F)cc1Cl
258 to 260	Cc1nc2ccc(F)cc2[nH]c1=O
100 to 103	C#CCOC(=O)Cn1cccc1-c1nc(-c2ccc(OC)cc2)c(-c2ccc(OC)cc2)s1
225 to 226	Nc1nc2c(cnn2CCc2ccccc2)c2nc(-c3ccco3)nn12
200 to 202	O=C(CNC(=O)OCc1ccccc1)Nc1nnc(SCc2ccccc2)s1
116 to 121	Clc1nc(Cl)c2ncn(C3CCCCC3)c2n1
155 to 157	Cc1ccc2c3c(c(=O)oc2c1)CN(CCN1CC2CCC(CC2)C1)CC3
121 to 123	CCOc1c2ccccc2nc2c1c(C)nn2-c1ccccn1
183 to 186	COc1ncc(CS(=O)(=O)CC(=O)O)cc1[N+](=O)[O-]
138 to 139	Cc1ccc(-c2c(NS(=O)(=O)c3ccc(C(C)(C)COC4CCCCO4)cc3)ncnc2OCCOc2ncc(Br)cn2)cc1 (configuration not stated)
110 to 112	CCCc1nc2c(C)ccnc2n1Cc1ccc2[nH]ccc2c1
265	NCCn1cnc2c(N)nc3ccccc3c21
132 to 134	CC[C@H](C)[C@H](Nc1nc(C(=O)c2ccccc2)ns1)C(=O)N1CCC[C@H]1C(=O)O
138 to 140	COc1ccc(S(=O)(=O)N2C(=O)[C@@](c3ccccc3OC)(N3C[C@H](OC(=O)N(C)C)C[C@H]3C(=O)N(C)C)c3cc(Cl)ccc32)c(OC)c1
186	O=C(Cc1ccc(O)cc1)c1ccc(O)cc1O
160 to 161	COc1cc(NCCOc2ccccc2C)ccc1C(=O)N1CCCC(CC(=O)N2CCN(C)CC2)c2cc(Cl)ccc21 (configuration not stated)
151 to 152	Cn1nc(-c2ccc(Cl)cc2)c2ccccc2c1=O
169 to 170	NC(=O)c1cc(Cl)c(Cl)c(Cl)n1
143 to 146	Cc1ccc2c(c1)O[C@@H](CN1CCC(CNC(=O)c3cccnc3N)CC1)CO2

melting point [°C]	Structure (SMILES)
176 to 177	CCOC(=O)c1nc(-c2cccc(C)c2)cn1C
219 to 220	O=C1NCCN1c1ccc(S(=O)(=O)Nc2ccc3c(c2)OCO3)cc1
108 to 110	N#CCCn1cnc2ccccc21
173 to 174	Cc1ccc(N(C)S(=O)(=O)c2cccs2)c2[nH]c(C3=NCC(C#N)S3)cc12 (configuration not stated)
99 to 101	O=P1(c2ccccc2)c2ccccc2CN1Cc1ccccc1 (configuration not stated)
123	CCCCNC(=O)Oc1cccc(NC(=O)CC(=O)CCC)c1
238 to 240	CCc1cccc(CC)c1NC(=O)NC(c1ccccc1)c1ccccc1
67 to 69	CO/C=C(/C(=O)OC)c1ccccc1C=O
74 to 75	Cc1ccc(CCOc2cccc3c(Cl)ccnc23)cc1
98 to 100	CN(C)Cc1cccc(-c2cc3c4c(ccn4C(=O)CNC3)c2)c1
209 to 211	CCCCCCCNC(=O)Nc1ccc(NC(=O)NCCCC)cc1C(=O)NC1CCN(C(c2ccccc2)c2ccccc2)CC1
138 to 140	CCCCc1cnc(SC)[nH]c1=O
165 to 167	N#Cc1c(Cl)cc(OCc2ccncc2)cc1OC(C(=O)O)c1ccccc1Cl (racemic)
> 250	C#CCN1C(=O)COc2ccc(-n3c(=O)cc(C(F)(F)F)[nH]c3=O)cc21
31	CC(=O)CCC(=O)c1ccccc1
180 to 181	NC(=O)c1c(F)ccc(OCc2nc3ncccc3o2)c1F
169 to 170	COC(=O)c1ccc(COC2CC(n3cc(F)c(=O)[nH]c3=O)OC2CO)cc1 (configuration not stated)
214 to 216	CS(=O)(=O)Nc1cc2oc(NC=O)cc(=O)c2cc1Oc1ccccc1
67.8	Cc1cc(C)cc(C(=O)N2CCC(N3CCC(NCCc4ccccc4)CC3)CC2Cc2ccccc2)c1 (configuration not stated)
78 to 79	c1ccc(CN2CCc3[nH]c4c(-c5ccccc5)cccc4c3CC2)cc1
175 to 176	C#CC(C)(O)C1CCC2C3CC=C4CC(OC)CCC4(C)C3CCC21C (configuration not stated)
117 to 118	COC/C=C(C)/C=C/C(F)=C(C)/C=C/c1c(C)sc(C)c1C
292 to 300	CC12C=CC(=O)CC1CCC1C2CCC2(C)C(C(=O)NC3(C#N)CCCCC3)CCC12 (configuration not stated)
130 to 131	COC(=O)Cc1ccccc1NC(=S)NN(C)C
